In patent US10800789B2, “Antiviral compounds” (Gilead Pharmasset LLC, priority 2012, dated 2020):
Like-named read-outs stand apart in the source and are kept apart here.

Assays:
[1] = tested on: stable HCV 2a JFH-1 Rluc replicon cells (L31 present in NS5A); assay: Renilla luciferase HCV replicon reporter assay, genotype 2a JFH-1; type: cell-based; settings: Hepatitis C virus
In short: (§1)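 Antiviral EC50 was determined in HCV replicon cells (stable RLuc lines for 1a H77, 1b Con1, 2a JFH-1 with NS5A L31; J6 NS5A chimera with M31) treated 72 h with compound. Renilla luciferase was then quantified.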

[2] = tested on: NS5A chimeric genotype 1b Con1 replicon with genotype 4a ED43 strain NS5A gene; assay: Replicon assay, genotype 4a NS5A chimera; type: cell-based, HCV; settings: Hepatitis C virus
[3] = tested on: stable HCV 1b RLuc replicon cells (dicistronic genotype 1b Con1 replicon); assay: Renilla luciferase HCV replicon reporter assay, genotype 1b; type: cell-based; settings: Hepatitis C virus, 72 h, stable 1b Con1 RLuc replicon cells, 72 hours; read-out: 1b
In short: as §1

[4] = tested on: stable HCV 1a RLuc replicon cells (dicistronic genotype 1a H77 replicon); assay: Renilla luciferase HCV replicon reporter assay, genotype 1a; type: cell-based; settings: Hepatitis C virus, 72 h, stable 1a H77 RLuc replicon cells
In short: as §1

[5] = tested on: NS5A chimeric genotype 2a JFH-1 replicon with genotype 2b MD2b-1 strain NS5A gene (M31 present); assay: Replicon assay, genotype 2b NS5A chimera; type: cell-based, HCV; settings: Hepatitis C virus
In short: (§2)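 Cells carrying the stable or transiently transfected (Huh-Lunet) dicistronic RLuc replicons received 3-fold serial compound dilutions from 10 mM DMSO stocks. After 72 h, cells were lysed and Renilla luciferase read. DMSO served as the no-inhibition control and ITMN-191 above 100×EC50 as the positive control; EC50 by non-linear regression.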

[6] = tested on: NS5A chimeric genotype 1b Con1 replicon with genotype 3a S52 strain NS5A gene; assay: Replicon assay, genotype 3a NS5A chimera; type: cell-based, HCV; settings: Hepatitis C virus
[7] = tested on: NS5A chimeric genotype 2a JFH-1 replicon with genotype 2a J6 strain NS5A gene (M31 present); assay: Replicon assay, genotype 2a J6 NS5A chimera; type: cell-based, HCV; settings: Hepatitis C virus
In short: as §2

[8] = read-out: 2a JFH (nM), genotype 2a JFH-1 replicon (L31 in NS5A), stable cells
[9] = read-out: 2a JFH, stable 2a JFH-1 Rluc replicon cells, L31 in NS5A, activity range
[10] = read-out: 4a (s) (nM), genotype 4a NS5A chimeric replicon, stable replicon cells (s)
[11] = read-out: 4a (s), (s), activity range
[12] = 2BS, read-out: 2b (s), stably replicating replicon cells (s), activity range
[13] = read-out: 2b (s) (nM), genotype 2b MD2b-1 NS5A chimeric replicon (M31), stably replicating replicon cells (s)
[14] = read-out: 3a (s) (nM), genotype 3a NS5A chimeric replicon, stable replicon cells (s)
[15] = read-out: 3a (s), (s), activity range
[16] = read-out: 2a J6 (t) (nM), genotype 2a J6 NS5A chimeric replicon (M31), transiently transfected (t) into Huh-Lunet cells
[17] = read-out: 2a J6 (t), transiently transfected (t) into Huh-Lunet cells, activity range

CC[C@H]1CC[C@@H](c2ncc(-c3ccc4c(c3)COc3cc5c(ccc6nc([C@@H]7C[C@H](C)CN7C(=O)[C@@H](NC(=O)OC)C7CCOCC7)[nH]c65)cc3-4)[nH]2)N1C(=O)[C@@H](NC(=O)OC)C(C)C [HZ]
EC50 [1, 8]: 0.014 nM | EC50 [1, 9]: < 0.1 nM | EC50 [2, 10]: 0.012 nM | EC50 [2, 11]: < 0.1 nM | EC50 [3]: 0.025 nM | EC50 [4]: 0.012 nM | EC50 ([4]; activity range): < 0.1 nM | EC50 [5, 12]: < 0.1 nM | EC50 [5, 13]: 0.073 nM | EC50 [6, 14]: 0.14 nM | EC50 [6, 15]: 0.1 to 0.999 nM | EC50 [7, 16]: 0.023 nM | EC50 [7, 17]: < 0.1 nM

COC(=O)N[C@H](C(=O)N1[C@@H](C)CC[C@H]1c1nc2ccc3cc4c(cc3c2[nH]1)OCc1cc(-c2cnc([C@@H]3C[C@@H]5CCC[C@@H]5N3C(=O)[C@@H](NC(=O)OC)C3CCOCC3)[nH]2)ccc1-4)C(C)C [IB]
EC50 [1, 8]: 0.027 nM | EC50 [1, 9]: < 0.1 nM | EC50 [2, 10]: 0.026 nM | EC50 [2, 11]: < 0.1 nM | EC50 [3]: 0.032 nM | EC50 [4]: 0.021 nM | EC50 ([4]; activity range): < 0.1 nM | EC50 [5, 12]: 0.1 to 0.999 nM | EC50 [5, 13]: 0.129 nM | EC50 [6, 14]: 0.077 nM | EC50 [6, 15]: < 0.1 nM | EC50 [7, 16]: 0.05 nM | EC50 [7, 17]: < 0.1 nM

CC[C@H]1CC[C@@H](c2ncc(-c3ccc4c(c3)COc3cc5c(ccc6nc([C@@H]7C[C@H](C)CN7C(=O)[C@@H](NC(=O)OC)C(C)C)[nH]c65)cc3-4)[nH]2)N1C(=O)[C@@H](NC(=O)OC)C1CCOCC1 [IC]
EC50 [1, 8]: 0.02 nM | EC50 [1, 9]: < 0.1 nM | EC50 [2, 10]: 0.012 nM | EC50 [2, 11]: < 0.1 nM | EC50 [3]: 0.027 nM | EC50 [4]: 0.024 nM | EC50 ([4]; activity range): < 0.1 nM | EC50 [5, 12]: 0.1 to 0.999 nM | EC50 [5, 13]: 0.122 nM | EC50 [6, 14]: 0.116 nM | EC50 [6, 15]: 0.1 to 0.999 nM | EC50 [7, 16]: 0.052 nM | EC50 [7, 17]: < 0.1 nM

COC(=O)N[C@H](C(=O)N1[C@@H](C)CC[C@H]1c1ncc(-c2ccc3c(c2)COc2cc4c(ccc5nc([C@@H]6CC[C@H](C(C)C)N6C(=O)[C@@H](NC(=O)OC)C6CCOCC6)[nH]c54)cc2-3)[nH]1)C(C)C [ID]
EC50 [1, 8]: 0.051 nM | EC50 [1, 9]: < 0.1 nM | EC50 [2, 10]: 0.026 nM | EC50 [2, 11]: < 0.1 nM | EC50 [3]: 0.038 nM | EC50 [4]: 0.035 nM | EC50 ([4]; activity range): < 0.1 nM | EC50 [5, 12]: 1 to 44 nM | EC50 [5, 13]: 1.81 nM | EC50 [6, 14]: 0.801 nM | EC50 [6, 15]: 0.1 to 0.999 nM | EC50 [7, 16]: 0.953 nM | EC50 [7, 17]: 0.1 to 0.999 nM

CC[C@H]1CC[C@@H](c2nc3ccc4cc5c(cc4c3[nH]2)OCc2cc(-c3cnc([C@@H]4CC[C@H](C)N4C(=O)[C@@H](NC(=O)OC)C(C)C)[nH]3)ccc2-5)N1C(=O)[C@@H](NC(=O)OC)C(C)C [IF]
EC50 [1, 8]: 0.026 nM | EC50 [1, 9]: < 0.1 nM | EC50 [2, 10]: 0.017 nM | EC50 [2, 11]: < 0.1 nM | EC50 [3]: 0.021 nM | EC50 [4]: 0.016 nM | EC50 ([4]; activity range): < 0.1 nM | EC50 [5, 12]: 0.1 to 0.999 nM | EC50 [5, 13]: 0.691 nM | EC50 [6, 14]: 0.35 nM | EC50 [6, 15]: 0.1 to 0.999 nM | EC50 [7, 16]: 0.84 nM | EC50 [7, 17]: 0.1 to 0.999 nM

CC[C@H]1CC[C@@H](c2nc3ccc4cc5c(cc4c3[nH]2)OCc2cc(-c3cnc([C@@H]4CC[C@H](C)N4C(=O)[C@@H](NC(=O)OC)C(C)C)[nH]3)ccc2-5)N1C(=O)[C@H](NC(=O)OC)c1ccccc1 [IH]
EC50 [1, 8]: 0.024 nM | EC50 [1, 9]: < 0.1 nM | EC50 [2, 10]: 0.016 nM | EC50 [2, 11]: < 0.1 nM | EC50 [3]: 0.021 nM | EC50 [4]: 0.02 nM | EC50 ([4]; activity range): < 0.1 nM | EC50 [5, 12]: 0.1 to 0.999 nM | EC50 [5, 13]: 0.194 nM | EC50 [6, 14]: 0.052 nM | EC50 [6, 15]: < 0.1 nM | EC50 [7, 16]: 0.514 nM | EC50 [7, 17]: 0.1 to 0.999 nM

CC[C@H]1CC[C@@H](c2nc3ccc4cc5c(cc4c3[nH]2)OCc2cc(-c3cnc([C@@H]4CC[C@H](CC)N4C(=O)[C@@H](NC(=O)OC)C4CCOCC4)[nH]3)ccc2-5)N1C(=O)[C@@H](NC(=O)OC)C(C)C [II]
EC50 [1, 8]: 0.029 nM | EC50 [1, 9]: < 0.1 nM | EC50 [2, 10]: 0.016 nM | EC50 [2, 11]: < 0.1 nM | EC50 [3]: 0.033 nM | EC50 [4]: 0.024 nM | EC50 ([4]; activity range): < 0.1 nM | EC50 [5, 12]: 0.1 to 0.999 nM | EC50 [5, 13]: 0.197 nM | EC50 [6, 14]: 0.701 nM | EC50 [6, 15]: 0.1 to 0.999 nM | EC50 [7, 16]: 0.209 nM | EC50 [7, 17]: 0.1 to 0.999 nM

CC[C@H]1CC[C@@H](c2ncc(-c3ccc4c(c3)COc3cc5c(ccc6nc([C@@H]7C[C@@H]8CCC[C@@H]8N7C(=O)[C@@H](NC(=O)OC)C(C)C)[nH]c65)cc3-4)[nH]2)N1C(=O)[C@@H](NC(=O)OC)C1CCOCC1 [IN]
EC50 [1, 8]: 0.03 nM | EC50 [1, 9]: < 0.1 nM | EC50 [2, 10]: 0.023 nM | EC50 [2, 11]: < 0.1 nM | EC50 [3]: 0.028 nM | EC50 [4]: 0.021 nM | EC50 ([4]; activity range): < 0.1 nM | EC50 [5, 12]: 0.1 to 0.999 nM | EC50 [5, 13]: 0.109 nM | EC50 [6, 14]: 0.212 nM | EC50 [6, 15]: 0.1 to 0.999 nM | EC50 [7, 16]: 0.044 nM | EC50 [7, 17]: < 0.1 nM

CC[C@H](C)[C@H](NC(=O)OC)C(=O)N1[C@H](c2nc3ccc4cc5c(cc4c3[nH]2)OCc2cc(-c3cnc([C@@H]4CC[C@H](C)N4C(=O)[C@@H](NC(=O)OC)C4CCOCC4)[nH]3)ccc2-5)C[C@@H]2CCC[C@@H]21 [IO]
EC50 [1, 8]: 0.033 nM | EC50 [1, 9]: < 0.1 nM | EC50 [2, 10]: 0.03 nM | EC50 [2, 11]: < 0.1 nM | EC50 [3]: 0.043 nM | EC50 [4]: 0.027 nM | EC50 ([4]; activity range): < 0.1 nM | EC50 [5, 12]: 0.1 to 0.999 nM | EC50 [5, 13]: 0.118 nM | EC50 [6, 14]: 0.293 nM | EC50 [6, 15]: 0.1 to 0.999 nM | EC50 [7, 16]: 0.07 nM | EC50 [7, 17]: < 0.1 nM

CC[C@H]1CC[C@@H](c2ncc(-c3ccc4c(c3)COc3cc5c(ccc6nc([C@@H]7C[C@@H]8CCC[C@@H]8N7C(=O)[C@@H](NC(=O)OC)C7CCOCC7)[nH]c65)cc3-4)[nH]2)N1C(=O)[C@@H](NC(=O)OC)C(C)C [IQ]
EC50 [1, 8]: 0.023 nM | EC50 [1, 9]: < 0.1 nM | EC50 [2, 10]: 0.021 nM | EC50 [2, 11]: < 0.1 nM | EC50 [3]: 0.019 nM | EC50 [4]: 0.018 nM | EC50 ([4]; activity range): < 0.1 nM | EC50 [5, 12]: < 0.1 nM | EC50 [5, 13]: 0.069 nM | EC50 [6, 14]: 0.045 nM | EC50 [6, 15]: < 0.1 nM | EC50 [7, 16]: 0.046 nM | EC50 [7, 17]: < 0.1 nM

CC[C@H]1CC[C@@H](c2nc3ccc4cc5c(cc4c3[nH]2)OCc2cc(-c3cnc([C@@H]4CC[C@H](C)N4C(=O)[C@@H](NC(=O)OC)C4CCOCC4)[nH]3)ccc2-5)N1C(=O)[C@@H](NC(=O)OC)C(C)C [IR]
EC50 [1, 8]: 0.018 nM | EC50 [1, 9]: < 0.1 nM | EC50 [2, 10]: 0.017 nM | EC50 [2, 11]: < 0.1 nM | EC50 [3]: 0.021 nM | EC50 [4]: 0.018 nM | EC50 ([4]; activity range): < 0.1 nM | EC50 [5, 12]: < 0.1 nM | EC50 [5, 13]: 0.081 nM | EC50 [6, 14]: 0.091 nM | EC50 [6, 15]: < 0.1 nM | EC50 [7, 16]: 0.084 nM | EC50 [7, 17]: < 0.1 nM
